# From patent US6376543B1, “Secondary cataract inhibitor” (Kissei Pharmaceuticals Co., Ltd., priority 1996, dated 2002)
# Tested on: rat lens epithelial cells
# Experiment: Inhibitory activity on lens epithelial cell proliferation
# Type: cell-based
# Settings: rat lens epithelial cells cultured 4 days in DMEM with 10% FBS and various concentrations of Tranilast; viable cells counted by hemocytometer; FIG. 1
# Procedure: Inhibitory Activity on Lens Epithelial Cell Proliferation
# (1) Culture of Rat Lens Epithelial Cells
# Rat crystalline lens was harvested and cut into narrow strips. The strips were adhered to a culture plate and subcultured in Dulbecco's modified Eagle's Medium (DMEM) containing 10% fetal calf serum (FBS) at 37° C. in an atmosphere of 5% CO2 in air for 4 days. On day 4 (at the point that lens epithelial cells had migrated and profilated from crystalline lens tissues), the medium was aspirated and cells were gently washed with phosphate-buffered saline (PBS(−)). Then, the PBS(−) was aspirated, an aliquot of 0.25% trypsin solution containing 0.02% EDTA was added to the culture plate, and the morphology of the cells was observed under phase-contrast microscopy. When cells were going to be round, an equal value of DMEM containing 10% FBS was added to the trypsin solution to stop the action of trypsin. […]
# Cell suspension (2×10^4 cells/0.1 ml) and DMEM medium (1.9 ml) containing various concentration of Tranilast and 10% FBS were added to a culture plate (60 mm), and cultured at 37° C. in an atmosphere of 5% CO2 in air. […] After harvesting cells from the plate by pipetting using a pasture pipette, the number of viable cells was counted using a hemocytometer. […]
# Mean and standard variation values of each group were calculated. […]
compound,measurement,value
"COc1ccc(C=CC(=O)Nc2ccccc2C(=O)O)cc1OC [Tranilast, N-(3,4-dimethoxycinnamoyl)anthranilic acid]",proliferation of lens epithelial cells (number of viable cells),significantly suppressed the proliferation of lens epithelial cells in a concentration-dependent manner
